From patent US20250346943A1, “DEGRADER COMPOUNDS OF QSOX1 mRNA” (UNIVERSITY OF FLORIDA RESEARCH FOUNDATION, INCORPORATED, priority 2022, published 2025)

Columns and labels:
[1] = test system: SQSTM1 mRNA; assay: SQSTM1 mRNA abundance by RT-qPCR in MDA-MB-231 cells; format: cell-based, human; conditions: 48 h treatment
Method: Analysis of mRNA Abundance by RT-qPCR. Unless stated otherwise, all RT-qPCR experiments were performed to measure nascent RNA levels by using Click-it Nascent RNA Capture Kit (Cat #C10365, Thermo Fisher) per the manufacturer's protocols. Briefly, cells were treated with 0.2 mM of ethynyl uridine (EU) in growth medium for 16 h, after which the medium was replaced with fresh growth medium lacking EU. Compound or ASO treatment was performed at the same time of initial EU treatment, and compounds were replenished after replacing the medium to remove EU. Total RNA was extracted by using a Zymo Quick-RNA Miniprep Kit as per manufacturer's protocol with DNase treatment. The click reaction and pull-down of nascent RNA were performed as described in “In Vitro Chemical-Crosslinking and Isolation by Pull-down (Chem-CLIP) with Fluorescently Labeled RNA”. Reverse transcription (RT) was performed by using 300 ng total RNA and a QScript cDNA synthesis kit (QuantaBio) per manufacturer's protocols qPCR was performed in 384-well plates by using Power SYBR Green Master Mix (Life Technologies) on a QuantStudioS™ Cycler (Applied Biosystems) using the “Comparative Ct with Melt” method.

[2] = molecular target: QSOX1 5′UTR hairpin (model of the QSOX1-a binding site); assay: In vitro binding by fluorescence polarization, Cy5-labeled WT RNA; parameters: species or system human
Method: In Vitro Binding by Measuring Changes in Fluorescence Polarization. Cy5-labeled RNA was folded by heating at 95° C. for 2 min in 1× Folding Buffer and cooled on ice. Serial dilutions of F1 (200 to 0.4 μM, 1:1 dilutions) were prepared in 1× Folding Buffer with 4% (w/v) bovine serum albumin (BSA) with constant DMSO concentration (2% v/v). The compound solutions (10 μL) were added to a well of non-binding 384-well plate (Corning). An equal volume of folded RNA was adding to each well with a final concentration of 50 nM. The samples were incubated at room temperature for 30 min, and then fluorescence polarization was measured with a Molecular Devices SpectraMax M5 plate reader with an excitation wavelength of 640 nm and an emission wavelength of 680 nm.

[3] = test system: human transcriptome; assay: Chem-CLIP-Map-Seq transcriptome-wide target profiling in live MDA-MB-231 cells; format: cell-based; conditions: 20 μM, 16 h
Method: Additional studies were performed in live MDA-MB-231 cells to profile the cellular targets as well as the small molecule binding site within them, via Chem-CLIP-Map-Seq,^21 which had not previously been applied transcriptome-wide. After treatment (20 μM; 16 h) and cross-linking, total RNA was harvested and fragmented prior to pull-down (FIG. 2A). Random fragmentation was completed first to: 1) reduce sequence bias in library preparation, 2) reduce background signal in the RNA-seq analysis; and 3) allow for only the regions bound by the small molecules to be pulled down rather than the entire transcript, identifying both the target and the binding site within it. In parallel, a control diazirine probe that lacks an RNA-binding functionality (FIG. 2B) was used to identify targets that non-specifically react with the cross-linking moiety, where cross-linking is not driven by the RNA-binding elements.
Genrich uses a null model with a log-normal distribution to calculate p values by comparing sequencing runs of the same RNA sample before and after pull-down.
Chemical-Cross-linking and Isolation by Pull-down (Chem-CLIP) in Live Cells. MDA-MB-231 cells were seeded in 60 mm dishes and allowed to reach ˜80% confluency. The cells were then treated with 20 μM of compound in growth medium and incubated for 16 h. Cells were washed with 1×DPBS and irradiated with UV light for 10 min. Total RNA was harvested using a Zymo Quick-RNA Miniprep Kit per the manufacturer's protocol with DNase treatment. Total RNA was chemically fragmented by using an NEBNext Magnesium RNA Fragmentation Module (E6150S) per manufacturer's protocol to achieve final lengths between 100-150 nucleotides Pull-down of cross-linked RNAs was performed by adding 10 μg of total RNA to 100 μL of azide-disulfide agarose beads (Click Chemistry Tools, 1238-2) pre-washed with 25 mM HEPES, pH 7.0. The click reaction and pull-down were completed as described in “In Vitro Chemical-Crosslinking and Isolation by Pull-down (Chem-CLIP) with Fluorescently Labeled RNA”. The pulled down RNA was purified by RNA CleanXP beads (Beckman, A66514) per manufacturer's protocol.
RNA-seq Library Preparation and Data Analysis. The quality of the pulled down RNA was analyzed by using an Agilent 2100 Bioanalyzer RNA nanochip as well as to confirm fragment lengths. RNA concentration was quantified by Qubit 2.0 Fluorometer (Invitrogen). The input RNA (200 ng) was depleted of ribosomal RNA with NEBNext rRNA Depletion Module (E6310) according to manufacturer's recommendations. Library preparation was performed with NEBNext Ultra II Directional RNA kit (E7760) per manufacturer's protocols. Briefly, the rRNA-depleted samples were reverse transcribed with random hexamer primers to generate first strand cDNA, followed by second strand synthesis with dUTP instead of dTTP. The cDNA was end repaired and adenylated at their 3′ ends, followed by adaptor ligation. The strand information of the RNA was preserved by using USER enzyme (Uracil-specific excision reagent) to degrade the second strand. The cDNA was then PCR amplified with barcoded Illumina-compatible primers to generate the final libraries. These libraries were loaded into a NextSeq 500 v2.5 flow cell and sequenced with 2×40 bp paired-end chemistry. All fastq files were aligned to the human genome by STAR.^9 The output bam files were processed by Genrich (v0.6.1, available at https://github.com/jsh58/Genrich) for peak calling to identify regions of enrichment (p<0.001 and False Discovery Rate=1%). Fold enrichment was calculated by Deeptool^10 and visualized by IGV browser.^11 A minimum read count of 5 and a minimum fold enrichment of 1.5 were applied filter to filter out low-confidence peaks.

Row | Compound | effect on SQSTM1 mRNA levels [1] | Kd [2] | largest enrichments (two transcripts) [3] | number of transcripts enriched after eliminating transcripts also bound by the control diazirine [3]
1 | CCOC(=O)C1=C(Nc2ccccc2)S/C(=C\c2ccc(OCCOCCOCCOCCNC(=O)CCC(=O)N(C)[C@H]3CC[C@@H](c4ccc(Cl)c(Cl)c4)c4ccccc43)c(O)c2)C1=O [Compound F1-RIBOTAC] | No significant effect | 11 ± 5 µM |  | 
2 | C#CCCC1(CCC(=O)N(C)[C@H]2CC[C@@H](c3ccc(Cl)c(Cl)c3)c3ccccc32)N=N1 [Compound F1] |  |  | > 12 fold | 51
